Assays:
[1] = tested on: L929 mouse fibroblasts cells; test: Cytotoxicity, propidium iodide fluorescence method; format: cell-based; conditions: 24-h incubation
Procedure: The cytotoxicity of the synthesized derivatives against L929 mouse fibroblasts cells was determined using the propidium iodide (PI) fluorescence method in the presence of different concentrations (1–100 μM) of these compounds. The results are presented in Table 4 in the form of the % cell survival values as PI% for the examined compounds. […] Chalcones c7, c8, c11, and c12 follow.
L929 mouse fibroblasts cells were cultured in EMEM supplemented with 10% horse serum, 2 mM L-glutamine, 1 mM sodium pyruvate, 0.1 mM nonessential amino acids, 1.5 g/L sodium bicarbonate, and 100 μg/mL penicillin–streptomycin at 37 °C in a humidified atmosphere with 5% CO2. L929 cells were plated into 24-well plates at a density […] and allowed to attach and grow for 24 h. The supernatant in each well then replaced with medium containing various concentrations (1, 10, 20, 50 and 100 μM) of compounds a5–12, c5–12, di, and dii–dvi, which presented the more interesting results in the in vitro experiments. After 24-h incubation, the supernatant was removed and the cells were washed with PBS. The cells were detached with 0.25% trypsin, transferred to FACS tubes, and then centrifuged (1600 rpm for 5 min) and the pellet washed with PBS. After washing, the cells in the pellet were incubated with 5 μL propidium iodide (PI) solution (1 mg/mL) for 1 min. The PI fluorescence (cell death) was determined with flow cytometry, FACS Calibur, Coulter Epics XL-MCL (Beckman, Inc., Mount Holly, NJ, USA). The analysis of flow cytometry data was performed with the WinMDI analysis program (Table 4).

[2] = Inhibition of linoleic acid lipid peroxidation (AAPH)
Description: The water soluble 2,2′-azobis(2-amidinopropane) hydrochloride (AAPH) generates in vitro free radicals through spontaneous thermal decomposition. […] Overall, chalcones a, b, and c present anti-lipid peroxidation activity. […] The inhibiting activities for the rest b chalcones ranged from 15–44%. The intermediate ethers are moderate inhibitors. […] This might be correlated with the presence of the double C=C–COCH3 group. […] Both have a long ether chain in their structure.
In an aqueous solution spectrophotometrically at 234 nm the production of conjugated diene hydro peroxide by oxidation of sodium linoleate was monitored and recorded according to our previous published experimental conditions, using 10 µL of the 16 mM sodium linoleate solution added to the UV cuvette containing 930 μL of 0.05 M phosphate buffer, pH 7.4 pre-thermostated at 37 °C, under air by the addition of 50 μL of 40 mM AAPH solution, which was used as a free radical initiator. Ten microliters (10 μL) of the appropriate solutions of the tested compounds were added in the mixture, whereas same level of DMSO was used as a blank for the measurement of lipid oxidation. The rate of oxidation at 37 °C was monitored by recording the increase in absorption at 234 nm caused by conjugated diene hydro peroxides.

[3] = ABTS•+ decolorization assay
Procedure: The decolorization assay is used to evaluate the antioxidant activity. The ABTS^•+ cationic radical is derived from the direct oxidation of ABTS by potassium persulfate. No involvement of an intermediary radical is observed. The addition of electron-donating antioxidants reduce ABTS^•+.
Stock solutions of the tested compounds in DMSO (10 mM) were diluted. […] aliquots of each sample were added into the ABTS·^+ solution and the absorbance was recorded at room temperature. Trolox was used as a standard.

soybean lipoxygenase = molecular target: T1, soybean lipoxygenase (Glycine max, UniProt P08170); test: biochemical; format: biochemical; conditions: soybean LOX
T1 sequence (P08170 1-839): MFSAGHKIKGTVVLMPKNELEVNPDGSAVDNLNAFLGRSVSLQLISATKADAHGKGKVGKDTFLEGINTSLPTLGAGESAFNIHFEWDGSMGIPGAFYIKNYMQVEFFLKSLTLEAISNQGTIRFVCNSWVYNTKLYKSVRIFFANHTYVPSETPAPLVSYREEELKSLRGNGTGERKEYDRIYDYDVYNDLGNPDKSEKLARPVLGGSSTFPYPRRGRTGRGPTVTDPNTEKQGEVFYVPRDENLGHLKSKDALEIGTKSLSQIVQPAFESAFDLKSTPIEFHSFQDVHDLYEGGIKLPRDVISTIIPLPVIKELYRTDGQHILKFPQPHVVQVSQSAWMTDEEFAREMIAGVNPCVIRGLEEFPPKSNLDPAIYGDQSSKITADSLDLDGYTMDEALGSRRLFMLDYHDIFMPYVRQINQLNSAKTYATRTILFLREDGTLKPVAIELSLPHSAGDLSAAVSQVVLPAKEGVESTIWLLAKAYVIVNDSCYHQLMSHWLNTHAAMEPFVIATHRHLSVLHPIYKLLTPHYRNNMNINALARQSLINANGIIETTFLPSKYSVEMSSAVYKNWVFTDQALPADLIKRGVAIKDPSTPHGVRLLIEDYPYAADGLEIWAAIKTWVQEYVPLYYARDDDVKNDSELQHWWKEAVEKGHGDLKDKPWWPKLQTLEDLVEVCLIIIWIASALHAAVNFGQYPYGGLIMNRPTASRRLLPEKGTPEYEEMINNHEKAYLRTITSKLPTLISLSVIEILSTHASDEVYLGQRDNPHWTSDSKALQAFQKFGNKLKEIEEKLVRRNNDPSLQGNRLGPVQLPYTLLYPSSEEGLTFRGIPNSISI
Description: In our experiments we used soybean lipoxygenase. Designing agents to modulate activities of the variety of so closely homologous enzymes, such as different LOXs, require an intimate knowledge of their 3D structures, as well as information about metabolism of the potential xenobiotics. […] Due to lack of sufficiently-purified human enzymes most of the research has been done on soybean LOX [52, 53]. Although this enzyme is not identical to the mammalian one, it seems that there is a sufficient qualitative correlation between values for enzyme inhibition with the two enzymes.
In vitro study was evaluated as reported previously. The tested compounds as stock solutions were dissolved in DMSO. Ten microliters (10 μL) were incubated at room temperature with sodium linoleate ([…]) and 0.2 mL of enzyme solution (1/9 × 10^−4 w/v in saline) in buffer pH 9 (tris) at room temperature (final volume 1 mL). […] Several concentrations were used for the determination of IC50 values.

[4] = Lipophilicity as RM values by RP-TLC; format: physicochemical; set-up: key: RM = log[(1/Rf) − 1]; conditions: methanol/water 70/30, SD < 10%
Description: It is well-documented and discussed in the literature that lipophilicity is a very significant physicochemical property which may critically affect distribution, bioavailability, metabolic activity and elimination, all the useful characteristics for the kinetics of biologically active compounds. Thus, we attempted to determine experimentally the lipophilicity of the synthesized compounds from the RPTLC method as RM values. The method is considered to be a reliable, fast and convenient method for expressing lipophilicity. Moreover, many calculated methods were used in order to predict the logP value.
Reversed phase TLC (RP-TLC) was performed on silica gel plates impregnated with 5% (v/v) liquid paraffin in light petroleum ether. The mobile phase was a methanol/water mixture (70/30, v/v). The plates were developed in closed chromatography tanks saturated with the mobile phase at 24 °C. Spots were detected under UV light. Five individual measurements of Rf values were recorded and used for the determination of RM using the equation RM = log [(1/Rf) − 1]. (Table 3).

[5] = Reducing activity with the stable radical DPPH
Procedure: The chalcones were studied for the antioxidant activity (reducing activity RA%) by the use of the stable free radical 2,2-diphenyl-1-picrylhydrazyl radical (DPPH) at concentrations 0.05 mM after 20 and 60 min (Table 2). In this procedure, the dominant chemical reaction involved is the reduction of the DPPH radical by single electron transfer from the antioxidant. […] For the sake of comparison, we measured the RA% values for the intermediate double ethers d which were included in the Table 2.
To a solution of DPPH (final concentration 0.05 mM) in absolute ethanol an equal volume of the compounds solution in DMSO (stock solution 10 mM) dissolved in ethanol was added. Absolute ethanol was used as a control. The concentrations of the solutions of the compounds were 0.05 and 0.1 mM. The absorbance was recorded at 517 nm at room temperature after 20 and 60 min [29] (Table 2).

Row | Structure (SMILES) | 1 μM Average (% pi) ± σ [1] | 10 μM Average (% pi) ± σ [1] | 20 μM Average (% pi) ± σ [1] | 50 μM Average (% pi) ± σ [1] | 100 μM Average (% pi) ± σ [1] | AAPH% @ 100 μM (anti-lipid peroxidation) [2] | ABTS•+ Inhb. % @ 100 μM [3] | % LOX Inhb. @ 100 μM (soybean lipoxygenase) | RM [4] | RA% 100 μM 20 min [5] | RA% 100 μM 60 min [5] | IC50 (soybean lipoxygenase; read-out: LOX IC50)
1 | O=C(/C=C/C=C/c1ccccc1)c1ccc(OCCCOc2ccc(C(=O)/C=C/C=C/c3ccccc3)cc2)cc1 [c7, (2E,2′E,4E,4′E)-1,1′-((propane-1,3-diylbis(oxy))bis(4,1-phenylene))bis(5-phenylpenta-2,4-dien-1-one)] | 22.5 ± 11.64% | 28.73 ± 11.78% | 25.4 ± 8.42% | 28.84 ± 5.62% | 28.84 ± 5.62% | 82% | No | 41% | −0.77 | No | no | –
2 | O=C(/C=C/C=C/c1ccccc1)c1ccc(O)cc1 [a7, (2E,4E)-1-(4-hydroxyphenyl)-5-phenylpenta-2,4-dien-1-one] | 6.85 ± 3.12% | 9.27 ± 1.9% | 9.24 ± 6.49% | 60.95 ± 0.01% | 60.95 ± 0.01% | 31% | 12% | 4% | −0.64 | 19% | 6% | –
3 | CC(/C=C/C(=O)c1ccc(OCCCOc2ccc(C(=O)/C=C/C(C)=C/c3ccccc3)cc2)cc1)=C\c1ccccc1 [c8, (2E,2′E,4E,4′E)-1,1′-((propane-1,3-diylbis(oxy))bis(4,1-phenylene))bis(4-methyl-5-phenylpenta-2,4-dien-1-one)] | 35.72 ± 10.23% | 29.05 ± 9.62% | 35.69 ± 5.85% | 38.7 ± 4.96% | 38.7 ± 4.96% | 75% | No | 26.5% | −0.85 | No | no | –
4 | O=C(/C=C/C=C/c1ccc([N+](=O)[O-])cc1)c1ccc(O)cc1 [a11, (2E,4E)-1-(4-hydroxyphenyl)-5-(4-nitrophenyl) penta-2,4-dien-1-one] | – | 6.26 ± 3% | 18.81 ± 2.57% | 67.84 ± 6.45% | 67.84 ± 6.45% | 55% | 14% | 36% | −1.09 | 7% | 3% | –
5 | O=C(/C=C/c1ccco1)c1ccc(OCCCOc2ccc(C(=O)/C=C/c3ccco3)cc2)cc1 [c10, (2E,2′E)-1,1′-((propane-1,3-diylbis(oxy))bis(4,1-phenylene))bis(3-(furan-2-yl)prop-2-en-1-one)] | 18.10 ± 11.82% | 13.48 ± 10.36% | 25.93 ± 9.73% | 32.11 ± 9.38% | 32.11 ± 9.38% | 77% | 11% | 57% | 0.7 | No | no | 85 µM
6 | O=C(/C=C/C(Br)=C\c1ccccc1)c1ccc(O)cc1 [a9, (2E,4E)-4-bromo-1-(4-hydroxyphenyl)-5-phenylpenta-2,4-dien-1-one] | 0.55 ± 0.09% | 0.59 ± 0.83% | 2.7 ± 0.68% | 7.59 ± 0.13% | 7.59 ± 0.13% | 33% | No | 16% | −0.82 | 10% | 1% | –
7 | Cc1ccc(/C=C/C(=O)c2ccc(O)cc2)o1 [a12, (E)-1-(4-hydroxyphenyl)-3-(5-methylfuran-2-yl) prop-2-en-1-one] | 0.88 ± 0.31% | 3.25± 2.11% | 8.12 ± 0.32% | 63.54 ± 6.16% | 63.54 ± 6.16% | 45% | 6% | 2% | −0.81 | 24% | 9% | –
